Residue numbers refer to the chain shown, from its start. Several values for one entry are separate records, joined by “and”; a condition that tells them apart may be missing. Equal values may be shown once.
Key:
[1] = molecular target: T1, cysteine-substituted TMC1 constructs (Mus musculus, UniProt Q8R4P5, T532C); assay: Background current before and after MTSET treatment in Tmc1-knockout OHCs expressing cysteine-substituted TMC1; format: cell-based; settings: Tmc1-knockout OHCs expressing TMC1-T532C, individual cells
T1 construct: control full-length TMC1 (TMC1_WT); expressed in transfected cells; host or cells: Tmc1-knockout mouse OHCs, injectoporation
T1 sequence (Q8R4P5 1-757 T532C): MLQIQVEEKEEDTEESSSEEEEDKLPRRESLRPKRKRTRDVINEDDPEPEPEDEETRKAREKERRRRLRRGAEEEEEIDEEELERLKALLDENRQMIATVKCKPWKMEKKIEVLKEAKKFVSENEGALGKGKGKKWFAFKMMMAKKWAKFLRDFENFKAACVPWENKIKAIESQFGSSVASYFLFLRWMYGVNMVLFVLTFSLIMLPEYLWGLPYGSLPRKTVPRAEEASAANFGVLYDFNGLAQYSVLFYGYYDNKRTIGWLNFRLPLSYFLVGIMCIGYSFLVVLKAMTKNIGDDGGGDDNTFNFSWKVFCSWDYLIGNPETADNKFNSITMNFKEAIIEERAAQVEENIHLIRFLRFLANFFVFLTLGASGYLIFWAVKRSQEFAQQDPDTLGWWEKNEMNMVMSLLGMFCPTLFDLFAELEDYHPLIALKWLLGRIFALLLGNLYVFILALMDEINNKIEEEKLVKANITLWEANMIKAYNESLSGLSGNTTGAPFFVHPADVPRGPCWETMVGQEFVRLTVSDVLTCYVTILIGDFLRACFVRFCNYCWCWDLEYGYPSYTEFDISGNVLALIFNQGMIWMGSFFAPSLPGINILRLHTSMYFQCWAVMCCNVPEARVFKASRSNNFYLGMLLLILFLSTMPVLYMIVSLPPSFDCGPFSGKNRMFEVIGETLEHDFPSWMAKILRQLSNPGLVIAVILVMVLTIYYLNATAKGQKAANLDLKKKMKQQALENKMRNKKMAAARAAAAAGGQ
Method: (§1) Mouse Tmc1 and Tmc2 cDNAs were cloned into CMV-Script and pCDNA3.1- vectors, respectively. To obtain the Tmc1-deafness vector and amino-acid-substituted Tmc1 constructs, specific primers were designed and used for PCR (Supplementary File 1). […] In brief, the organ of Corti was isolated from P3 mice and cut into three pieces in Dulbecco’s modified Eagle’s medium/F12 with 1.5 μg/ml ampicillin. For electroporation, a glass pipette (2 μm tip diameter) was used to deliver cDNA plasmids (0.2 μg/μl in 1 × Hanks' balanced salt solution) to hair cells in the sensory epithelium. EGFP was used as an indicator for the selection of transfected hair cells. A series of three pulses at 60 V lasting 15 ms at 1 s intervals was applied to cochlear tissues by an electroporator (ECM Gemini X2, BTX, CA). The cochlear tissues were cultured for 1 day in vitro and then used for electrophysiological recording.
(§2) All experiments were performed at room temperature (20–25°C). Briefly, the basilar membrane with hair cells was acutely dissected from neonatal mice. […] The acutely isolated or cultured basilar membrane was used for electrophysiological recording within 1 h. […] Hair cells were recorded with a patch-clamp amplifier (EPC 10 USB and Patchmaster software, HEKA Elektronik, Lambrecht/Pfalz, Germany).
(§3) The sampling rate was 1 kHz for leak current recording, 50 kHz for the IV protocol and current-clamp recording, and 100 kHz for unitary channel recording. The voltage-clamp used a –70 mV holding potential, and the current-clamp was held at 0 pA. Only recordings with a current baseline <20 pA in NMDG solution were used for statistical analysis.

[2] = molecular target: T2, cysteine-substituted TMC1 constructs (Mus musculus, UniProt Q8R4P5, G411C); assay: as above; format: cell-based; settings: Tmc1-knockout OHCs expressing TMC1-G411C, individual cells
T2 construct: control full-length TMC1 (TMC1_WT); expressed in transfected cells; host or cells: Tmc1-knockout mouse OHCs, injectoporation
T2 sequence (Q8R4P5 1-757 G411C): T1 sequence (Q8R4P5 1-757 T532C) with G411C, C532T
Method: as §1, §2, §3

## C[N+](C)(C)CCSS(C)(=O)=O.[Br-] [MTSET, 2-(trimethylammonium)ethyl methanethiosulfonate, bromide]
[1]
  amplitude of the background current after MTSET treatment: -61.9555 and -32.5794 and -12.1284 and -34.0535 and -31.604
[2]
  amplitude of the background current after MTSET treatment: -17.5539 and -22.5978 and -20.1413 and -23.0553 and -21.6542
